Experiments:
[1] = biological target: T1, PD-1/PD-L1 interaction (Homo sapiens, UniProt Q9NZQ7); assay: PD-1/PD-L1 NFAT reporter co-culture assay; format: cell-based; conditions: Jurkat PD-1 NFAT-luciferase cells co-cultured with aAPC-PD-L1 CHO cells, 6 hrs at 37° C.; read-out: EC50 NFAT Luciferase
T1 construct: expressed in transfected cells; host or cells: CHO cells (aAPC-PD-L1) co-cultured with Jurkat cells overexpressing PD-1 and an NFAT-luciferase reporter
Method in brief: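 CHO aAPC-PD-L1 seeded overnight; PD-1/NFAT-luc Jurkat + cpd in RPMI 1640, 2% FBS added at once; 6 h, 37 °C; ONE-Glo luminescence; EC50, 4-parameter fit.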

[2] = biological target: PD-1/PD-L1 (Homo sapiens, UniProt Q9NZQ7); assay: PD-1/PD-L1 biochemical protein-protein interaction assay (ALPHA); format: binding; conditions: 0.3 nM His tagged PD-L1, 2.5 nM biotinylated Fc-PD-1, 60 minutes at 25° C., read-out: IC50 PD-L1-PD-1 Alpha IC50-mono PD-L1-fcP-D1
Method in brief: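 ALPHA bead proximity assay of extracellular domains: 0.3 nM His-PD-L1 with 2.5 nM biotinylated Fc-PD-1 in 25 mM Hepes pH 7.4, 150 mM NaCl, 3.4 mM EDTA, 0.005% Tween 20, 0.01% BSA, 60 min at 25 °C. Anti-His acceptor and streptavidin donor beads added; IC50 from four-parameter fit of signal loss.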

[3] = biological target: T2, PD-L1 (Homo sapiens, UniProt Q9NZQ7); assay: PD-L1/PD-L1 dimerization biochemical protein-protein interaction assay (ALPHA); format: binding; conditions: compound-induced PD-L1 dimerization, head prints '1 nM' (0.5 nM His-tagged PD-L1 and 0.5 nM FLAG-tagged PD-L1), read-out: AC50 PDL1 Dimer Alpha 1 nM
T2 construct: determine if they can specifically dimerize the extracellular domains of PD-L1
Method in brief: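 ALPHA proximity assay of compound-induced dimerization of 0.5 nM His-tagged and 0.5 nM FLAG-tagged PD-L1 extracellular domains in Hepes pH 7.4 buffer, 2 h at 25 °C. Anti-His acceptor then anti-FLAG donor beads, 60 min each; AC50 from four-parameter fit.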

T1 sequence (Q9NZQ7 19-290): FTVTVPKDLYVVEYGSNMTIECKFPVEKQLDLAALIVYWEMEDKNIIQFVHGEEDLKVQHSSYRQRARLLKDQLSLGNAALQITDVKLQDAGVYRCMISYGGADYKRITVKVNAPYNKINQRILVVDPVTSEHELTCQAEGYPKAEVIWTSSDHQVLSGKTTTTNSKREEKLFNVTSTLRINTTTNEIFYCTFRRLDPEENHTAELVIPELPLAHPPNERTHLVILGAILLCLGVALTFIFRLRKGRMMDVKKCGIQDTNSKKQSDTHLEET
T2 sequence (Q9NZQ7 19-238 limits assumed): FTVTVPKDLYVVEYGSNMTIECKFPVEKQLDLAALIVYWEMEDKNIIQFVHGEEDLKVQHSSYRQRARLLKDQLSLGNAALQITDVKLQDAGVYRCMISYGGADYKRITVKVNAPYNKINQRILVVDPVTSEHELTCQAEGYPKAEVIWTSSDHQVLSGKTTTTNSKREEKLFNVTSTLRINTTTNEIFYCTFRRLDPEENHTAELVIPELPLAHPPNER
T2 sequence (Q9NZQ7 19-238 limits assumed): as above
PD-1/PD-L1, sequence (Q9NZQ7 19-238 limits assumed): as above

Row | Compound | EC50 [1] | IC50 [2] | AC50 [3]
1 | COc1nc(Oc2cccc(-c3cccc(-c4ccc(CNC[C@@H]5CCC(=O)N5)c(OC)n4)c3Cl)c2Cl)ccc1CNC[C@@H]1CCC(=O)N1 [Example 428] | 282 nM | 1.37 nM | 525 nM
2 | COc1nc(C(=O)Nc2cccc(-c3cccc(-c4ccc(CNC[C@@H]5CCC(=O)N5)c(OC)n4)c3Cl)c2Cl)ccc1CNC[C@@H]1CCC(=O)N1 [Example 429] | 680 nM | 0.14 nM | 240 nM
3 | COc1nc(-c2cccc(-c3cccc(COc4nc(OC)c(CN5CC6(CNC(=O)C6)C5)cc4Cl)c3Cl)c2Cl)ccc1CNC[C@@H]1CCC(=O)N1 [Example 430] | 268 nM | 2.06 nM | 290 nM
4 | COc1nc(OCc2cccc(-c3cccc(-c4ccc(CNC[C@@H]5CCC(=O)N5)cc4)c3Cl)c2Cl)c(Br)cc1CNC[C@@H]1CCC(=O)N1 [Example 431] | 275 nM | 1.32 nM | 249 nM
5 | COc1nc(-c2cccc(-c3cccc(COc4nc(OC)c(CNC[C@H]5CCC(=O)N5)cc4Cl)c3Cl)c2Cl)ccc1CN1CC2(CCC(=O)N2)C1 [Example 432] | 289 nM | 1.52 nM | 539 nM
6 | Cc1c(COc2cc(OCc3cncc(C#N)c3)c(CNC[C@@H](O)CC(=O)O)cc2Cl)cccc1-c1cccc(-c2ccc(CNC[C@@H](O)CC(=O)O)c(OCC#N)c2)c1C [Example 433] | 290 nM | 0.08 nM | 167 nM
7 | COc1nc(-c2cccc(-c3cccc(NC(=O)c4ccc(C5=NCCN5)cn4)c3C)c2Cl)ccc1C1=NCCN1 [Example 434] | 332 nM | 0.077 nM | 106 nM
8 | COc1nc(OCc2cccc(-c3cccc(-c4ccc5c(c4)C[C@@H](N)C5)c3Cl)c2Cl)c(Br)cc1CN[C@@](C)(CO)C(=O)O [Example 435] | 316 nM | 0.234 nM | 86.2 nM
9 | CNC(=O)COc1cc(-c2cccc(-c3cccc(COc4cc(OCc5cncc(C#N)c5)c(CNC[C@@H](O)CC(=O)O)cc4Cl)c3C)c2C)ccc1C1=NCCN1 [Example 436] | 544 nM | 0.064 nM | 77.8 nM
10 | Cc1c(COc2cc(OCc3cncc(C#N)c3)c(CNC[C@@H](O)CC(=O)O)cc2Cl)cccc1-c1cccc(-c2ccc3c(CNC[C@H]4CCC(=O)N4)ccnc3c2)c1C [Example 437] | 476 nM | 1.61 nM | 477 nM
11 | Cc1c(COc2cc(OCc3cncc(C#N)c3)c(CNC[C@@H](O)CC(=O)O)cc2Cl)cccc1-c1cccc(Nc2nccc3cc(CNCCO)cnc23)c1C [Example 438] | 222 nM | 0.476 nM | 168 nM
12 | Cc1c(COc2cc(OCc3cncc(C#N)c3)c(CNC[C@@H](O)CC(=O)O)cc2Cl)cccc1-c1cccc(-c2ccc3c(c2)CC(NCC2CCC(=O)N2)C3)c1C (stereo partly drawn) [Example 439] | 270 nM | 0.376 nM | 154 nM
13 | COc1ccc(-c2cccc(-c3cccc(COc4cc(OCc5cncc(C#N)c5)c(CN[C@@](C)(CO)C(=O)O)cc4Cl)c3C)c2C)cc1CN [Example 440] | 251 nM | 0.115 nM | 113 nM
14 | Cc1c(COc2cc(OCc3cncc(C#N)c3)c(CN[C@@](C)(CO)C(=O)O)cc2Cl)cccc1-c1cccc(-c2ccc(OCCN3CCC4(CC3)CC(=O)N4)cc2)c1C [Example 441] | 260 nM | 0.212 nM | 301 nM
15 | Cc1c(COc2cc(OCc3cncc(C#N)c3)c(CNC[C@@H](O)CC(=O)O)cc2Cl)cccc1-c1cccc(-c2ccc3c(c2)CC(N2CC(C)(O)C2)C3)c1C (stereo partly drawn) [Example 442] | 930 nM | 0.697 nM | 328 nM
16 | Cc1c(COc2cc(OCc3cncc(C#N)c3)c(CNC(C)(CO)C(=O)O)cc2Cl)cccc1-c1cccc(-c2ccc(CN3CCC4(CC3)CNC4=O)cc2)c1C (stereo not drawn) [Example 443] | 276 nM | 0.064 nM | 154 nM
17 | Cc1c(COc2cc(OCc3cncc(C#N)c3)c(CNC(C)(CO)C(=O)O)cc2Cl)cccc1-c1cccc(-c2ccc(CN3CCC4(CNC(=O)C4)C3)cc2)c1C (stereo not drawn) [Example 444] | 296 nM | 0.064 nM | 133 nM
18 | Cc1c(COc2cc(OCc3cncc(C#N)c3)c(CN[C@@](C)(CO)C(=O)O)cc2Cl)cccc1-c1cccc(-c2ccc(O[C@@H]3CCNC[C@H]3F)cc2)c1Cl [Example 445] | 1490 nM | 0.719 nM | 266 nM

Row | Compound | EC50 [1] | IC50 [2] | AC50 [3]
19 | Cc1c(COc2cc(OCc3cncc(C#N)c3)c(CNC[C@@H](O)CC(=O)O)cc2Cl)cc(F)cc1-c1cccc(-c2ccc(OCCN3CC[C@@H](O)C3)cc2)c1C [Example 446] | 315 nM | 0.453 nM | 458 nM
20 | Cc1c(COc2cc(OCc3cncc(C#N)c3)c(CNC[C@@H](O)CC(=O)O)cc2Cl)cccc1-c1cccc(-c2ccc3c(c2)CC(=O)N3CCN(C)C)c1C [Example 448] | 1010 nM | 0.618 nM | 903 nM
21 | Cc1c(COc2cc(OCc3cncc(C#N)c3)c(CNC[C@@H](O)CC(=O)O)cc2Cl)cccc1-c1cccc(-n2cc(CN3CCCC3)nn2)c1C [Example 449] | 2570 nM | 0.653 nM | 1490 nM
22 | Cc1c(COc2cc(OCc3cncc(C#N)c3)c(CNCCO)cc2Cl)cccc1-c1cccc(-c2ccc(CN(C)C)cc2)c1Br [Example 450] | 277 nM | 1.56 nM | 110 nM
23 | Cc1c(COc2cc(OCc3cncc(C#N)c3)c(CNC(C)(CO)C(=O)O)cc2Cl)cccc1-c1cccc(-c2ccc(CN3CC4(CNC4)C3)cc2)c1C (stereo not drawn) [Example 451] | 472 nM | 0.104 nM | 105 nM
24 | Cc1c(COc2cc(OCc3cncc(C#N)c3)c(CNC[C@@H](O)CC(=O)O)cc2Cl)cccc1-c1cccc(-c2cnc3c(CNC[C@@H](O)CC(=O)O)cccc3c2)c1C [Example 452] | 253 nM | 0.076 nM | 144 nM
25 | Cc1c(COc2cc(OCc3cncc(C#N)c3)c(CN[C@@](C)(CO)C(=O)O)cc2Cl)cccc1-c1cccc(-c2nnc(CCN3CC[C@@H](O)C3)o2)c1C [Example 453] | 895 nM | 0.111 nM | 326 nM
26 | Cc1c(COc2cc(OCc3cncc(C#N)c3)c(CN3CC[C@@H](O)C3)cc2Cl)cccc1-c1cccc(-c2ncc(CN3CC[C@@H](O)C3)cn2)c1C [Example 454] | 953 nM | 1.01 nM | 943 nM
27 | Cc1c(COc2cc(OCc3cncc(C#N)c3)c(CN[C@@](C)(CO)C(=O)O)cc2Cl)cccc1-c1cccc(-c2ncc(CN3CC[C@@H](O)C3)cn2)c1C [Example 455] | 1540 nM | 0.172 nM | 686 nM
28 | Cc1c(COc2cc(OCc3cncc(C#N)c3)c(CNC[C@@H](O)CC(=O)O)cc2Cl)cccc1-c1cccc(-c2ccc(OCCNCCO)c(C(N)=O)c2)c1C [Example 456] | 1230 nM | 0.269 nM | 182 nM
29 | Cc1c(COc2cc(OCc3cncc(C#N)c3)c(CN[C@@](C)(CO)C(=O)O)cc2Cl)cccc1-c1cc(F)cc(-c2ccc(CN(C)C)cc2)c1Cl [Example 457] | 1560 nM | 0.064 nM | 49.3 nM
30 | CNC(=O)c1cc(-c2cccc(-c3cccc(COc4cc(OCc5cncc(C#N)c5)c(CNC[C@@H](O)CC(=O)O)cc4Cl)c3C)c2C)ccc1OCCNCCO [Example 458] | 429 nM | 0.325 nM | 139 nM
31 | Cc1c(COc2cc(OCc3cncc(C#N)c3)c(CN[C@@](C)(CO)C(=O)O)cc2Cl)cccc1-c1cccc(-c2ccc(OCCNCCO)c(C(=O)NC3CC3)c2)c1C [Example 459] | 1200 nM | 0.064 nM | 89.9 nM
32 | Cc1c(COc2cc(OCc3cncc(C#N)c3)c(CNC[C@@H](O)CC(=O)O)cc2Cl)cccc1-c1cccc(-c2ccc(CNC[C@@H](O)CC(=O)O)c(SC(F)F)c2)c1C [Example 460] | 112 nM | 0.147 nM | 302 nM
33 | Cc1c(COc2cc(OCc3cncc(C#N)c3)c(CNC[C@@H](O)CC(=O)O)cc2Cl)cccc1-c1cccc(-c2ccc(CNC[C@@H](O)CC(=O)O)c(OC(F)F)c2)c1C [Example 461] | 47 nM | 0.064 nM | 128 nM
34 | N#CCOc1cc(-c2cccc(-c3cccc(-c4ccc(CNC[C@@H]5CCC(=O)N5)c(OCC#N)c4)c3Cl)c2Cl)ccc1CNC[C@@H]1CCC(=O)N1 [Example 463] | 123 nM | 0.159 nM | 71.3 nM
35 | Cc1c(COc2cc(OCc3cncc(C#N)c3)c(CNC[C@@H](O)CC(=O)O)cc2Cl)cccc1-c1cccc(-c2ccc(C3=NCCN3)c(OC(F)F)c2)c1C [Example 464] | 152 nM | 0.099 nM | 87.6 nM
36 | Cc1c(COc2cc(OCc3cncc(C#N)c3)c(CNC[C@@H](O)CC(=O)O)cc2Cl)cccc1-c1cccc(-c2ccc(C3=NCCN3)c(OCCCC#N)c2)c1C [Example 465] | 193 nM | 0.116 nM | 84.8 nM
